Data set [1] relates to MLLr leukemia cell line MV4-11. The data set is described as follows: Cell proliferation assay MV4;11 (CellTiter-Glo, 72 hours). As to conditions: Homo sapiens; MV4-11 cells, 72 hours, CellTiter-Glo; read-out: MV4; 11 IC50. It is filed as cell-based. The procedure, abridged: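 Cells in IMDM/10% FBS, seeded from a 15,000 cells/ml suspension, were exposed for 72 h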
In general terms: In ATP-based viability assays light output follows the ATP content of the culture.

The next data set concerns the target T1, Menin-MLL (Homo sapiens, UniProt O00255).
T1 sequence (O00255 1-610): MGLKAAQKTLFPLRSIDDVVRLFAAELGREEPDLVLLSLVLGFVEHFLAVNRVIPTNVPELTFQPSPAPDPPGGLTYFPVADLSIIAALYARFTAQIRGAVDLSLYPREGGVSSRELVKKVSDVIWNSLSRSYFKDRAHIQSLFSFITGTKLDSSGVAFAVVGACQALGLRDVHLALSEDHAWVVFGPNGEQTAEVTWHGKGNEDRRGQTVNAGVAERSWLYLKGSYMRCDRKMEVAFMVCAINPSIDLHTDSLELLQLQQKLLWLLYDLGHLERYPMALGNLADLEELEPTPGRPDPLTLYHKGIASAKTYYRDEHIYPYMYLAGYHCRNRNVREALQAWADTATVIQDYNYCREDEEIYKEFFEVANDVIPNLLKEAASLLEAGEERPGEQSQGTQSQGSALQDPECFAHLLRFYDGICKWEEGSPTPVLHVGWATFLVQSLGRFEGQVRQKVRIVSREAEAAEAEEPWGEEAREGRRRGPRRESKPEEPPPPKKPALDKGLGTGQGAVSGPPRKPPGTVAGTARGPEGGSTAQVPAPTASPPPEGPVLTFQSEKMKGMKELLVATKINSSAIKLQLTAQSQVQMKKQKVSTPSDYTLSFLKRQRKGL
The data set is described as follows: Determination of binding constants to Menin-MLL (HTRF, EC50 and Ki). As to conditions: 0.25 nM H-FL-Menin, 3.2 nM FITC-MLL-4-43, 24 hr incubation. A general note: Time-resolved FRET reads energy transfer from a long-lived donor to a nearby acceptor.

For data set [2], the target named is T2, human Menin and N-terminal portion of human MLL (amino acids 4-43) (Homo sapiens, UniProt O00255).
T2 construct: H-FL-Menin diluted to 4 nM in assay buffer
T2 sequence (O00255 1-610): T1 sequence (O00255 1-610)
The data set is described as follows: Menin-MLL competition assay (HTRF). It counts as binding. As to conditions: 1 hr incubation. The procedure, abridged:
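HTRF competition: 1 nM His-tagged full-length Menin with 2 nM Tb-anti-His6 and 1 nM FITC-MLL(4-43), 1 h at room temperature in Tris pH 7.4 buffer with DTT, BSA, Triton X-100; 3.16-fold compound series, 2% DMSO. Ratio 520/485 normalized to DMSO and 1 μM reference-compound controls for IC50.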

Another data set deals with hERG (Homo sapiens, UniProt Q12809). Kind of data set: Patch clamp assay (hERG tail currents, whole-cell). For orientation: The patch-clamp technique gives a direct electrical read-out from membranes.

One may read the pKi as the Ki on a negative log10 scale, so that one unit is a factor of ten. Read a low pKi as a high Ki. By pEC50 is commonly meant −log10 of the EC50, conventionally taken in molar units. Low values mean a large EC50, high ones a small EC50.

pEC50, pIC50, pKi: −log10 of the molar value. Bounds are passed on as bounds.

Sequence of hERG (Q12809 whole entry): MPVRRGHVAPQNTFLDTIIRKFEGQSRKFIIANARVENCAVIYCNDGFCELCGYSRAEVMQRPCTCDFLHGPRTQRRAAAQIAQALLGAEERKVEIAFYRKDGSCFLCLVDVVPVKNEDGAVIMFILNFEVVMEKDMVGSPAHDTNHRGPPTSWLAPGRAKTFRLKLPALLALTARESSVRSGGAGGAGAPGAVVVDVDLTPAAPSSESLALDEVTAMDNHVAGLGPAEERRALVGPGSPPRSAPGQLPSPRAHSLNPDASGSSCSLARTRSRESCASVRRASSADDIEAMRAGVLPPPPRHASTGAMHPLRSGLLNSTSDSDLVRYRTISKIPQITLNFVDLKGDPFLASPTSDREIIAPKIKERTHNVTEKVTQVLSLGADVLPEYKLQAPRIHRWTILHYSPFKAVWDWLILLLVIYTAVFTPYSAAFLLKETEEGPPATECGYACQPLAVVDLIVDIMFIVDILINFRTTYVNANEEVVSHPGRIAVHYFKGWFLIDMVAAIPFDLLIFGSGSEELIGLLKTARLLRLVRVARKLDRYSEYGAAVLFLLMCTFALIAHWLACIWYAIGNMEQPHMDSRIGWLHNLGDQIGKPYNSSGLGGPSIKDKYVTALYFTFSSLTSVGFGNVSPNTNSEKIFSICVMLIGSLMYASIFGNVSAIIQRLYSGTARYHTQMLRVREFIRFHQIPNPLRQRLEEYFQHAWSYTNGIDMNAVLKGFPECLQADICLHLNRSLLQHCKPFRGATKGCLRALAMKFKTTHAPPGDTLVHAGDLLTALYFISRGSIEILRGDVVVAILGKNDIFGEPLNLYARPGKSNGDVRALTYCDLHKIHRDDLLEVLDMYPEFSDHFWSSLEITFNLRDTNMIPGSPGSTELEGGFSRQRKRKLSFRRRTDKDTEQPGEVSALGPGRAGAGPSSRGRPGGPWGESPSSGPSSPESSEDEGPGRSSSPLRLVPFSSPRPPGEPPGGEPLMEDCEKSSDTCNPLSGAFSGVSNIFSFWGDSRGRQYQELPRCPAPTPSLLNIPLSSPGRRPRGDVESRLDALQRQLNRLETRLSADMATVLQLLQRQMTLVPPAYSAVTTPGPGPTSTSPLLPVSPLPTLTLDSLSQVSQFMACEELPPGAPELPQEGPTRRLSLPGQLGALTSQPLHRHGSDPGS

As for `CCS(=N)(=O)N[C@@H]1CC[C@@H](CN2CCC3(CC2)CN(c2ncncc2Oc2ccc(F)cc2C(=O)N(C(C)C)C(C)C)C3)OC1` (mixture of isomers) [Example 225, 2-((4-(7-(((2S,5R)-5-(Ethylsulfonoamidimidamido)tetrahydro-2H-pyran-2-yl)methyl)-2,7-diazaspiro[3.5]nonan-2-yl)pyrimidin-5-yl)oxy)-5-fluoro-N,N-diisopropylbenzamide], the pIC50 in data set [1] was 6.00 to 7.00. The pKi on Menin-MLL was above 9.00.

On to `CCN(C(=O)c1cc(F)ccc1Oc1cncnc1N1CC2(CCN(C[C@@H]3CC[C@@H](NS(=O)(=O)C4CCOC4)CO3)CC2)C1)C(C)C` (stereo partly drawn) [Example 10, N-Ethyl-5-fluoro-N-isopropyl-2-((4-(7-(((2S,5R)-5-((tetrahydrofuran)-3-sulfonamido)tetrahydro-2H-pyran-2-yl)methyl)-2,7-diazaspiro[3.5]nonan-2-yl)pyrimidin-5-yl)oxy)benzamide], for which the pIC50 in data set [2] and in data set [1] was above 7.00 each time.

Take `CC(C)N(C(=O)c1cc(F)ccc1Oc1cncnc1N1CC2(CCN(C[C@@H]3CC[C@@H](NS(C)(=O)=O)CO3)CC2)C1)C1CC1` [Example 18, N-Cyclopropyl-5-fluoro-N-isopropyl-2-((4-(7-(((2S,5R)-5-(methylsulfonamido)tetrahydro-2H-pyran-2-yl)methyl)-2,7-diazaspiro[3.5]nonan-2-yl)pyrimidin-5-yl)oxy)benzamide]: the pIC50 in data set [2] and in data set [1] was above 7.00 throughout.

`CCS(=O)(=O)N[C@@H]1CC[C@@H](CN2CCC3(CC2)CN(c2ncncc2Oc2ccc(F)cc2C(=O)N(C(C)C)C2CC(F)(F)C2)C3)OC1` [Example 44, N-(3,3-Difluorocyclobutyl)-2-((4-(7-(((2S,5R)-5-(ethylsulfonamido)tetrahydro-2H-pyran-2-yl)methyl)-2,7-diazaspiro[3.5]nonan-2-yl)pyrimidin-5-yl)oxy)-5-fluoro-N-isopropylbenzamide]: in data set [2], the pIC50 was above 7.00. Besides, the “hERG % Remaining” value on hERG (10 μM compound) was “+++ (≥66%)”; at hERG (30 μM compound), “++ (233% and ≤66%)”.

The molecule `CCN(C(=O)c1cc(F)ccc1Oc1cncnc1N1CC2(CCN(C[C@@H]3CC[C@@H](NS(=O)(=O)c4ccccc4)CO3)CC2)C1)C(C)C` [Example 45, N-Ethyl-5-fluoro-N-isopropyl-2-((4-(7-(((2S,5R)-5-(phenylsulfonamido)tetrahydro-2H-pyran-2-yl)methyl)-2,7-diazaspiro[3.5]nonan-2-yl)pyrimidin-5-yl)oxy)benzamide] gave a pIC50 in data set [2] above 7.00. The “hERG % Remaining” value on hERG (10 μM compound) is “++ (233% and ≤66%)”; on hERG (30 μM compound), “+ (<33%)”.

As for `CC(C)N(CC(F)F)C(=O)c1cc(F)ccc1Oc1cncnc1N1CC2(CCN(C[C@@H]3CC[C@@H](NS(=O)(=O)C4CC4)CO3)CC2)C1` [Example 47, 2-((4-(7-(((2S,5R)-5-(Cyclopropanesulfonamido)tetrahydro-2H-pyran-2-yl)methyl)-2,7-diazaspiro[3.5]nonan-2-yl)pyrimidin-5-yl)oxy)-N-(2,2-difluoroethyl)-5-fluoro-N-isopropylbenzamide], the pIC50 in data set [2] was above 7.00. Also, the “hERG % Remaining” value at hERG (10 μM compound) was “+++ (≥66%)”; at hERG (30 μM compound), “++ (233% and ≤66%)”.

On to `CCN(C(=O)c1cc(F)ccc1Oc1cncnc1N1CC2(CCN(C[C@@H]3CC[C@@H](NS(=O)(=O)N(C)C)CO3)CC2)C1)C(C)C` [Example 49, 2-((4-(7-(((2S,5R)-5-((N,N-Dimethylsulfamoyl)amino)tetrahydro-2H-pyran-2-yl)methyl)-2,7-diazaspiro[3.5]nonan-2-yl)pyrimidin-5-yl)oxy)-N-ethyl-5-fluoro-N-isopropylbenzamide], for which, in data set [2], the pIC50 is above 7.00. In addition, the “hERG % Remaining” value at hERG (10 μM compound) and on hERG (30 μM compound) was “+++ (≥66%)” in each case.

`CCS(=O)(=O)N[C@@H]1CC[C@@H](CN2CCC3(CC2)CN(c2ncncc2Oc2ccc(F)cc2C(=O)N(C(C)C)[C@H]2C[C@@H](O)C2)C3)OC1` [Example 50, 2-((4-(7-(((2S,5R)-5-(Ethylsulfonamido)tetrahydro-2H-pyran-2-yl)methyl)-2,7-diazaspiro[3.5]nonan-2-yl)pyrimidin-5-yl)oxy)-5-fluoro-N-((1s,3s)-3-hydroxycyclobutyl)-N-isopropylbenzamide]: the pIC50 in data set [2] and in data set [1] was above 7.00 throughout.

As to `CCN(C(=O)c1cc(F)ccc1Oc1cncnc1N1CC2(CCN(C[C@H]3CC[C@H](NS(=O)(=O)CC)CO3)CC2)C1)C(C)C` [Example 52, N-Ethyl-2-((4-(7-(((2R,5S)-5-(ethylsulfonamido)tetrahydro-2H-pyran-2-yl)methyl)-2,7-diazaspiro[3.5]nonan-2-yl)pyrimidin-5-yl)oxy)-5-fluoro-N-isopropylbenzamide], the pEC50 at Menin-MLL is at least 7.30.

The molecule `CC(C)N(C(=O)c1cc(F)ccc1Oc1cncnc1N1CC2(CCN(C[C@@H]3CC[C@@H](NS(=O)(=O)C(C)C)CO3)CC2)C1)[C@@H]1CCOC1` [Example 132, 5-Fluoro-N-isopropyl-2-((4-(7-(((2S,5R)-5-((1-methylethyl)sulfonamido)tetrahydro-2H-pyran-2-yl)methyl)-2,7-diazaspiro[3.5]nonan-2-yl)pyrimidin-5-yl)oxy)-N-((R)-tetrahydrofuran-3-yl)benzamide] showed a pEC50 at Menin-MLL of 6.95.

With `CC(C)N(C(=O)c1cc(F)ccc1Oc1cncnc1N1CC2(CCN(C[C@@H]3CC[C@@H](NS(=O)(=O)C4CC4)CO3)CC2)C1)[C@H]1CCOC1` [Example 176, 2-((4-(7-(((2S,5R)-5-(Cyclopropanesulfonamido)tetrahydro-2H-pyran-2-yl)methyl)-2,7-diazaspiro[3.5]nonan-2-yl)pyrimidin-5-yl)oxy)-5-fluoro-N-isopropyl-N-((S)-tetrahydrofuran-3-yl)benzamide], the pIC50 is above 7.00 in data set [1] and below 4.30 against hERG. For the same molecule, the pKi at Menin-MLL was above 9.00. In addition, the “hERG % Remaining” value at hERG (10 μM compound), on hERG (30 μM compound) and at hERG (100 μM compound) was “+++ (≥66%)” in each case.

As for `CCN(C(=O)c1cc(F)ccc1Oc1cncnc1N1CC2(CCN(C[C@@H]3CC[C@@H](NC(=O)Nc4ccccc4)CO3)CC2)C1)C(C)C` [Example 215, N-Ethyl-5-fluoro-N-isopropyl-2-((4-(7-(((2S,5R)-5-(3-phenylureido)tetrahydro-2H-pyran-2-yl)methyl)-2,7-diazaspiro[3.5]nonan-2-yl)pyrimidin-5-yl)oxy)benzamide], the “Menin-MLL Ki HTRF Assay: EC50 (nM)” value at Menin-MLL is “++ (250 nM and <100 nM)”.

As to `CCS(=O)(=O)N[C@@H]1CC[C@@H](CN2CCC3(CC2)CN(c2ncncc2Oc2ccc(F)cc2C(=O)N(C(C)C)[C@H]2C[C@H](F)C2)C3)OC1` [Example 243, 2-((4-(7-(((2S,5R)-5-(Ethylsulfonamido)tetrahydro-2H-pyran-2-yl)methyl)-2,7-diazaspiro[3.5]nonan-2-yl)pyrimidin-5-yl)oxy)-5-fluoro-N-((1r,3r)-3-fluorocyclobutyl)-N-isopropylbenzamide], in data set [1], the pIC50 was above 7.00. This molecule also had a pKi on Menin-MLL above 9.00.

With `CCS(=O)(=O)N[C@@H]1CC[C@@H](CN2CCC3(CC2)CN(c2ncncc2Oc2ccc(F)cc2C(=O)N(C(C)C)[C@H]2C[C@@H](C(F)F)C2)C3)OC1` [Example 245, N-((1s,3s)-3-(difluoromethyl)cyclobutyl)-2-((4-(7-(((2S,5R)-5-(ethylsulfonamido)tetrahydro-2H-pyran-2-yl)methyl)-2,7-diazaspiro[3.5]nonan-2-yl)pyrimidin-5-yl)oxy)-5-fluoro-N-isopropylbenzamide], the pIC50 in data set [1] was above 7.00. Also, on Menin-MLL, the pKi is above 9.00.

Turning to `CCS(=O)(=O)N[C@@H]1CC[C@@H](CN2CCC3(CC2)CN(c2ncncc2Oc2ccc(F)cc2C(=O)N(C(C)C)[C@H]2C[C@H](C(F)F)C2)C3)OC1` [Example 246, N-((1r,3r)-3-(Difluoromethyl)cyclobutyl)-2-((4-(7-(((2S,5R)-5-(ethylsulfonamido)tetrahydro-2H-pyran-2-yl)methyl)-2,7-diazaspiro[3.5]nonan-2-yl)pyrimidin-5-yl)oxy)-5-fluoro-N-isopropylbenzamide], the pIC50 in data set [1] is above 7.00. In addition, the pKi at Menin-MLL was above 9.00.

Values taken from patent publication US20240400564A1 (Syndax Pharmaceuticals, Inc, priority 2021, published 2024).
